Experimental data taken from patent publication US12655116B2, “Substituted isophthalic acid diamides” (Bayer Aktiengesellschaft, priority 2020, dated 2026).

Assays:
MATIN [1] = assay: Pre-emergence herbicidal action against MATIN; type: in vivo, Matricaria inodora
Outline: (§1)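 Herbicidal effect was assessed 3 weeks after treatment by visual comparison with untreated controls, 100% denoting dead plants. Aqueous WP or EC preparations had been applied at 600 to 800 l/ha with 0.2% wetting agent to the soil covering freshly sown seeds.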

DIGSA [2] = assay: Pre-emergence herbicidal action against DIGSA; type: in vivo, Digitaria sanguinalis
Outline: as §1

ABUTH [3] = assay: Pre-emergence herbicidal action against ABUTH; type: in vivo, Abutilon theophrasti
Outline: as §1

ECHCG [4] = assay: Pre-emergence herbicidal action against ECHCG; type: in vivo, Echinochloa crus-galli
Outline: as §1

AMARE [5] = assay: Pre-emergence herbicidal action against AMARE; type: in vivo, Amaranthus retroflexus
Outline: as §1

VERPE [6] = assay: Post-emergence herbicidal action against VERPE; type: in vivo, Veronica persica
Outline: (§2)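 Herbicidal effect was scored visually in percent after about 3 weeks in the greenhouse. Plants had been raised in sandy loam and treated post-emergence at the one-leaf stage with formulated compound at 600 to 800 l/ha water plus 0.2% wetting agent.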

PHBPU [7] = assay: Pre-emergence herbicidal action against PHBPU; type: in vivo, Pharbitis purpurea
Outline: as §1

LOLRI = assay: Pre-emergence herbicidal action against LOLRI; type: in vivo, Lolium rigidum; settings: 80 g/ha
Outline: as §1

ALOMY [8] = assay: Pre-emergence herbicidal action against ALOMY; type: in vivo, Alopecurus myosuroides
Outline: as §1

ECHCG [9] = assay: Post-emergence herbicidal action against ECHCG; type: in vivo, Echinochloa crus-galli
Outline: as §2

VIOTR [10] = assay: Pre-emergence herbicidal action against VIOTR; type: in vivo, Viola tricolor
Outline: as §1

AVEFA [11] = assay: Pre-emergence herbicidal action against AVEFA; type: in vivo, Avena fatua
Outline: as §1

ALOMY [12] = assay: Post-emergence herbicidal action against ALOMY; type: in vivo, Alopecurus myosuroides; settings: visual assessment about 3 weeks after treatment vs untreated controls
Outline: as §2

PHBPU [13] = assay: Post-emergence herbicidal action against PHBPU; type: in vivo, Pharbitis purpurea
Outline: as §2

POLCO [14] = assay: Post-emergence herbicidal action against POLCO; type: in vivo, Polygonum convolvulus; settings: dosage 20 g/ha
Outline: as §2

DIGSA [15] = assay: Post-emergence herbicidal action against DIGSA; type: in vivo, Digitaria sanguinalis
Outline: as §2

VIOTR [16] = assay: Post-emergence herbicidal action against VIOTR; type: in vivo, Viola tricolor
Outline: as §2

POLCO [17] = assay: Pre-emergence herbicidal action against POLCO; type: in vivo, Polygonum convolvulus; settings: dosage 80 g/ha
Outline: as §1

AMARE [18] = assay: Post-emergence herbicidal action against AMARE; type: in vivo, Amaranthus retroflexus; settings: 20 g/ha, visual assessment about 3 weeks after treatment, 100% = plants have died, 0% = like control plants
Outline: as §2

SETVI [19] = assay: Pre-emergence herbicidal action against SETVI; type: in vivo, Setaria viridis
Outline: as §1

ABUTH [20] = assay: Post-emergence herbicidal action against ABUTH; type: in vivo, Abutilon theophrasti; settings: visual assessment about 3 weeks after treatment vs untreated controls
Outline: as §2

AVEFA [21] = assay: Post-emergence herbicidal action against AVEFA; type: in vivo, Avena fatua; settings: 20 g/ha, visual assessment about 3 weeks after treatment, 100% = plants have died, 0% = like control plants
Outline: as §2

SETVI [22] = assay: Post-emergence herbicidal action against SETVI; type: in vivo, Setaria viridis
Outline: as §2

VERPE [23] = assay: Pre-emergence herbicidal action against VERPE; type: in vivo, Veronica persica; settings: Veronica persica, 504 h
Outline: as §1

MATIN [24] = assay: Post-emergence herbicidal action against MATIN; type: in vivo, Matricaria inodora; settings: Tripleurospermum inodorum, 504 h
Outline: as §2

[25] = 80 g/ha, scored visually after 3 weeks vs untreated controls (100% = plants have died, 0% = like control plants)
[26] = 20 g/ha, scored visually after 3 weeks, 100% = plants have died, 0% = like control plants
[27] = Ipomoea purpurea, 504 h, dosage 20 g/ha

Compound: Cn1nnnc1NC(=O)c1ccc(C(F)(F)F)c(C(=O)NCC(F)F)c1Br [Example 1-212]
- Pre-emergence action against MATIN in % (MATIN [1]; dosage 20 g/ha): 90%
- Pre-emergence action against MATIN in % (MATIN [1]; dosage 80 g/ha): 100%
- Pre-emergence action against DIGSA in % (DIGSA [2]; dosage 20 g/ha): 100%
- Pre-emergence action against DIGSA in % (DIGSA [2]; dosage 80 g/ha): 100%
- Pre-emergence action against ABUTH (herbicidal activity) (ABUTH [3]; [25]): 100%
- Pre-emergence action against ABUTH (herbicidal activity in percent) (ABUTH [3]; dosage 20 g/ha, scored visually after 3 weeks vs untreated controls, 100% = plants have died, 0% = like control plants): 80%
- Pre-emergence action against ECHCG in % (ECHCG [4]; 80 g/ha): 100%
- Pre-emergence action against AMARE in % (AMARE [5]; 20 g/ha, scored visually after 3 weeks vs untreated controls, 100% = plants have died, 0% = like control plants): 100%
- Pre-emergence action against AMARE in % (AMARE [5]; [25]): 100%
- Post-emergence action against VERPE in % (VERPE [6]; 20 g/ha): 80%
- Pre-emergence action against PHBPU in % (PHBPU [7]; dosage 20 g/ha): 80%
- Pre-emergence action against PHBPU in % (PHBPU [7]; dosage 80 g/ha): 80%
- Pre-emergence action against LOLRI in % (LOLRI): 80%
- Pre-emergence action against ALOMY (ALOMY [8]; [26]): 100%
- Pre-emergence action against ALOMY (herbicidal activity) (ALOMY [8]; 80 g/ha, pre-emergence, scored visually after 3 weeks vs untreated controls (100% = plants have died, 0% = like control plants)): 100%
- Post-emergence action against ECHCG in % (ECHCG [9]; dosage 5 g/ha): 80%
- Post-emergence action against ECHCG in % (ECHCG [9]; dosage 20 g/ha): 80%
- Pre-emergence action against VIOTR in % (VIOTR [10]; dosage 20 g/ha): 100%
- Pre-emergence action against VIOTR in % (VIOTR [10]; dosage 80 g/ha): 100%
- Pre-emergence action against AVEFA (AVEFA [11]; [26]): 80%
- Pre-emergence action against AVEFA in % (AVEFA [11]; 80 g/ha, pre-emergence): 90%
- Post-emergence action against ALOMY in % (ALOMY [12]; dosage 5 g/ha): 80%
- Post-emergence action against ALOMY in % (ALOMY [12]; dosage 20 g/ha): 90%
- Post-emergence action against PHBPU in % (PHBPU [13]; dosage 5 g/ha): 80%
- Post-emergence action against PHBPU in % (PHBPU [13]; dosage 20 g/ha): 90%
- Post-emergence action against POLCO in % (POLCO [14]): 100%
- Post-emergence action against DIGSA in % (DIGSA [15]; 5 g/ha): 90%
- Post-emergence action against DIGSA (DIGSA [15]; 20 g/ha): 100%
- Post-emergence action against VIOTR in % (VIOTR [16]; 5 g/ha): 80%
- Post-emergence action against VIOTR in % (VIOTR [16]; 20 g/ha): 90%
- Pre-emergence action against POLCO in % (POLCO [17]): 80%
- Post-emergence action at 20 g/ha against AMARE in % (AMARE [18]): 100%
- Pre-emergence action against SETVI in % (SETVI [19]; dosage 20 g/ha): 80%
- Pre-emergence action against SETVI in % (SETVI [19]; dosage 80 g/ha): 100%
- Post-emergence action against ABUTH in % (ABUTH [20]; dosage 20 g/ha): 80%
- Post-emergence action at 20 g/ha against AVEFA in % (AVEFA [21]): 80%
- Post-emergence action against SETVI in % (SETVI [22]; dosage 5 g/ha): 80%
- Post-emergence action against SETVI in % (SETVI [22]; dosage 20 g/ha): 90%

Compound: CCc1c(C(=O)Nc2nnnn2C)ccc(C(F)(F)F)c1C(=O)NC [Example 1-271]
- pest or weed control at 20 g/ha (MATIN [1]; Tripleurospermum inodorum, 504 h, dosage 20 g/ha): 100%
- pest or weed control at 80 g/ha (MATIN [1]; Tripleurospermum inodorum, 504 h, dosage 80 g/ha): 100%
- pest or weed control at 20 g/ha (DIGSA [2]; Digitaria sanguinalis, 504 h, dosage 20 g/ha): 100%
- pest or weed control at 80 g/ha (DIGSA [2]; Digitaria sanguinalis, 504 h, dosage 80 g/ha): 100%
- pest or weed control at 80 g/ha (ABUTH [3]; Abutilon theophrasti, 504 h, 80 g/ha, scored visually after 3 weeks vs untreated controls (100% = plants have died, 0% = like control plants)): 100%
- pest or weed control at 20 g/ha (ABUTH [3]; Abutilon theophrasti, 504 h, dosage 20 g/ha, scored visually after 3 weeks vs untreated controls, 100% = plants have died, 0% = like control plants, read-out: Pre-emergence action against ABUTH (herbicidal activity in percent)): 100%
- pest or weed control at 20 g/ha (ECHCG [4]; Echinochloa crus-galli, 504 h, 20 g/ha): 90%
- pest or weed control at 80 g/ha (ECHCG [4]; Echinochloa crus-galli, 504 h, 80 g/ha): 100%
- pest or weed control at 20 g/ha (AMARE [5]; Amaranthus retroflexus, 504 h, 20 g/ha, scored visually after 3 weeks vs untreated controls, 100% = plants have died, 0% = like control plants): 100%
- pest or weed control at 80 g/ha (AMARE [5]; Amaranthus retroflexus, 504 h, 80 g/ha, scored visually after 3 weeks vs untreated controls, 100% = plants have died, 0% = like control plants): 100%
- pest or weed control at 5 g/ha (VERPE [6]; Veronica persica, 504 h, 5 g/ha): 80%
- pest or weed control at 20 g/ha (VERPE [6]; Veronica persica, 504 h, 20 g/ha): 90%
- pest or weed control at 20 g/ha (PHBPU [7]; [27]): 80%
- pest or weed control at 80 g/ha (PHBPU [7]; Ipomoea purpurea, 504 h, dosage 80 g/ha): 90%
- pest or weed control at 80 g/ha (LOLRI; Lolium rigidum, 504 h): 100%
- pest or weed control at 80 g/ha (ALOMY [8]; Alopecurus myosuroides, 504 h, 80 g/ha, pre-emergence, scored visually after 3 weeks vs untreated controls (100% = plants have died, 0% = like control plants)): 90%
- pest or weed control at 5 g/ha (ECHCG [9]; Echinochloa crus-galli, 504 h, dosage 5 g/ha): 80%
- pest or weed control at 20 g/ha (ECHCG [9]; Echinochloa crus-galli, 504 h, dosage 20 g/ha): 80%
- pest or weed control at 20 g/ha (VIOTR [10]; Viola tricolor, 504 h, dosage 20 g/ha): 100%
- pest or weed control at 80 g/ha (VIOTR [10]; Viola tricolor, 504 h, dosage 80 g/ha): 100%
- pest or weed control at 20 g/ha (VERPE [23]; dosage 20 g/ha): 90%
- pest or weed control at 80 g/ha (VERPE [23]; dosage 80 g/ha): 100%
- pest or weed control at 80 g/ha (AVEFA [11]; Avena fatua, 504 h, 80 g/ha, pre-emergence): 80%
- pest or weed control at 5 g/ha (ALOMY [12]; Alopecurus myosuroides, 504 h, dosage 5 g/ha): 80%
- pest or weed control at 20 g/ha (ALOMY [12]; Alopecurus myosuroides, 504 h, dosage 20 g/ha): 90%
- pest or weed control at 20 g/ha (PHBPU [13]; [27]): 90%
- pest or weed control at 20 g/ha (POLCO [14]; Fallopia convolvulus, 504 h): 80%
- pest or weed control at 5 g/ha (DIGSA [15]; Digitaria sanguinalis, 504 h, 5 g/ha): 90%
- pest or weed control at 20 g/ha (DIGSA [15]; Digitaria sanguinalis, 504 h, 20 g/ha): 100%
- pest or weed control at 20 g/ha (VIOTR [16]; Viola tricolor, 504 h, 20 g/ha): 90%
- pest or weed control at 5 g/ha (MATIN [24]; dosage 5 g/ha): 90%
- pest or weed control at 20 g/ha (MATIN [24]; dosage 20 g/ha): 90%
- pest or weed control at 80 g/ha (POLCO [17]; Fallopia convolvulus, 504 h): 80%
- pest or weed control at 20 g/ha (AMARE [18]; Amaranthus retroflexus, 504 h): 90%
- pest or weed control at 80 g/ha (SETVI [19]; Setaria viridis, 504 h, dosage 80 g/ha): 100%
- pest or weed control at 5 g/ha (ABUTH [20]; Abutilon theophrasti, 504 h, dosage 5 g/ha): 80%
- pest or weed control at 20 g/ha (ABUTH [20]; Abutilon theophrasti, 504 h, dosage 20 g/ha): 90%
- pest or weed control at 20 g/ha (AVEFA [21]; Avena fatua, 504 h): 80%
- pest or weed control at 20 g/ha (SETVI [22]; Setaria viridis, 504 h, dosage 20 g/ha): 80%
